# Assay results: US12441734B2, “Ferroptosis inhibitor and use therefor” (JICHI MEDICAL UNIVERSITY, priority 2021, dated 2025)
# “Also recorded” adds a separate entry of the source.
# Columns and labels:
# [1] = test system: mitochondrial hepatopathy patient cells (ME263-1); experiment: Test I: suppression of BSO-induced cell death, mitochondrial hepatopathy patient cells; conditions: 50-200 μM BSO coadded with drug; FIG. 6B
# [2] = test system: Kearns-Sayre syndrome (KSS) patient cells (ME130-1); experiment: Test I: suppression of BSO-induced cell death, KSS patient cells; conditions: BSO coadded with drug; FIG. 7B
# [3] = test system: mitochondrial cardiomyopathy patient cells (ME250-1); experiment: Test I: suppression of BSO-induced cell death, mitochondrial cardiomyopathy patient cells; format: cell-based, human; conditions: 50-200 μM BSO alone or coadded with drug; FIG. 5B
# [4] = test system: Kearns-Sayre syndrome (KSS) patient cells (ME130-1); experiment: Test I: suppression of RSL-3-induced cell death, KSS patient cells; format: cell-based, human; conditions: 10-140 nM RSL-3 coadded with drug; FIG. 10B
# [5] = test system: Leigh syndrome patient cells (LS^ND3); experiment: Test I: suppression of BSO-induced cell death, Leigh syndrome patient cells; format: cell-based, human; conditions: 100 μM BSO alone or coadded with inhibitor (1 μM; GSK872 1-10 μM, v-VAD 1, 10 μM), 48 hours; FIG. 1B, 3B
# From the text: (§1) In the drawing, the abscissa depicts test compounds, and the ordinate depicts the cell viability (%) of each treated plot when the number of live cells in a control non-supplemented with BSO is defined as 100%.
# as §1
# [6] = test system: Leigh syndrome patient cells (LS^ND3); experiment: Test I: suppression of RSL-3-induced cell death, Leigh syndrome patient cells; format: cell-based, human; conditions: 50 nM RSL-3 alone or coadded with inhibitor, 48 hours, FIG. 2B, 4B
# From the text: (§2) In the drawing, the abscissa depicts test compounds, and the ordinate depicts the cell viability (%) of each treated plot when the number of live cells in a control non-supplemented with RSL-3 is defined as 100%.
# as §2
# [7] = test system: mitochondrial hepatopathy patient cells (ME263-1); experiment: Test I: suppression of RSL-3-induced cell death, mitochondrial hepatopathy patient cells; format: cell-based, human; conditions: 10-140 nM RSL-3 coadded with drug; FIG. 9B
# [8] = test system: normal cells (Promo1 cells); experiment: Test I: RSL-3 and test compounds on normal cells; format: cell-based, human; conditions: RSL-3 alone or coadded with inhibitor, 48 hours; FIG. 4A, 8A
# From the text: as §2, §2, §2
# [9] = test system: mitochondrial cardiomyopathy patient cells (ME250-1); experiment: Test I: suppression of RSL-3-induced cell death, mitochondrial cardiomyopathy patient cells; format: cell-based, human; conditions: 10-140 nM RSL-3 alone or coadded with drug; FIG. 8B
# From the text: as §2
# [10] = test system: human liver cancer cell line (Huh7); experiment: Test V: suppression of RSL-3-induced cell death in liver cancer cell system (LDH, MTT); format: cell-based; parameters: key to LDH (LDH activity, cell death): relative to control without RSL-3 (= 1); conditions: for cell death induced by RSL-3 (in words): Huh7, RSL-3 0.5 μM; for LDH (LDH activity, cell death) / MTT (cell proliferation and cell viability) / viability at 1 µM: Huh7, test compound 1 μM (GSK872 5 μM) 1 hour, then RSL-3 0.5 μM 24 hours, relative value, control non-supplemented with RSL-3 = 1; for viability at 1 µM: Homo sapiens, Huh-7, read-out: MTT (cell proliferation and cell viability)
# Protocol: The ferroptosis inducer used was RSL-3.
# At the stage where 70% confluency was attained, the medium was replaced with the medium for the test, and DMSO or each test compound (final concentration of GSK872: 5 μM, and final concentration of the other compounds: 1 μM) was added to the cells in each well, which were then cultured for 1 hour. Then, the ferroptosis inducer (final concentration: 0.5 μM) was added to the cells in each well, which were then cultured for 24 hours. After the completion of culture, cell death suppressive activity was measured with lactate dehydrogenase (LDH) activity as an index while cell proliferation and cell viability were measured with activity of reducing yellow tetrazolium salt (MTT) into formazan as an index.
# The values in the table are relative values when the LDH activity and MTT value of a control non-supplemented with RSL-3 are each defined as 1.
# SH-SY5Y cells = experiment: Test VI: inhibition of rotenone-induced neuronal death (LDH assay); format: cell-based, human; parameters: key: ++: the case where a concentration-dependent inhibitory effect on rotenone-induced cell death was able to be confirmed twice; +: In the third test, the case where the concentration-dependent inhibitory effect was able to be confirmed; ±: the case where no concentration-dependent inhibitory effect was able to be confirmed; −: The case where any inhibitory effect on rotenone-induced cell death was able to be confirmed in none of the two tests; conditions: rotenone 1 μM, compound 10 nM-10 μM (Apo 0.1 nM-10 μM), 48 hours
# Protocol: After the completion of culture, rotenone-induced cell death was measured using Cytotoxicity LDH Assay Kit-WST (Dojindo Laboratories). […] The test was conducted twice, and the case where a concentration-dependent inhibitory effect on rotenone-induced cell death was able to be confirmed twice was rated as (++). If the inhibitory effect was confirmed in one of the two tests and no inhibitory effect was confirmed in the other test, the third test was conducted. In the third test, the case where the concentration-dependent inhibitory effect was able to be confirmed was rated as (+), and the case where no concentration-dependent inhibitory effect was able to be confirmed was rated as (±). The case where any inhibitory effect on rotenone-induced cell death was able to be confirmed in none of the two tests was rated as (−).
# dopamine D2 receptor = dopamine D2 receptor (Homo sapiens (Human), UniProt P14416); experiment: Test IV: dopamine D2 receptor binding activity (GeneBLAzer D2-Gqo5-NEAT-bla CHO-K1 Cell-based Assay); conditions: for Dopamine D2 receptor binding activity, Activity intensity: CHO-K1 reporter cells, 5 hours
# dopamine D2 receptor, sequence (P14416 whole entry): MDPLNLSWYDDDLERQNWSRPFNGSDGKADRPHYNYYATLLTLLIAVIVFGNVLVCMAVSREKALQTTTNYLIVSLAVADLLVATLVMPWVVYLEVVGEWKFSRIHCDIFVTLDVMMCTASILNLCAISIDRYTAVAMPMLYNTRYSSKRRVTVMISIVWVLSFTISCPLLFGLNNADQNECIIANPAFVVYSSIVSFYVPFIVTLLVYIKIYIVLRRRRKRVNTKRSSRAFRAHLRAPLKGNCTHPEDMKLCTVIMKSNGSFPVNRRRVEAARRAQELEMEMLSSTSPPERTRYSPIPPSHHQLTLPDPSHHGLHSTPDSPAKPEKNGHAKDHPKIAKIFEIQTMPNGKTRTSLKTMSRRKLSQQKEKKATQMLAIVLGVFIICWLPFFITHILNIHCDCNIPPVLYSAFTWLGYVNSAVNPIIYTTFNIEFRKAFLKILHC
# Protocol: In this test, the dopamine D2 receptor binding activity of each test compound was measured using GeneBLAzer D2-Gqo5-NEAT-bla CHO-K1 Cell-based Assay (Thermo Fisher Scientific, Inc.). The CHO cells are designed such that a signal transduction pathway is activated by addition of a drug to express a reporter gene (P lactamase). […] Therefore, the binding activity of the test compound can be measured by measuring a blue fluorescence/green fluorescence ratio. The CHO cells were inoculated at 10,000 cells/well to a 384-well plate and cultured for 16 to 20 hours in a CO2 incubator. […] A substrate mix was added to the cells and incubated at room temperature for 2 hours. […] The respective EC50 values of the test compounds were determined from the measured fluorescence ratios using GraphPad Prism 8.
# [11] = test system: MELAS patient cells (ME169); experiment: Test III: suppression of RSL-3-induced ferroptosis, MELAS patient cells; format: cell-based, human; conditions: 100 nM RSL-3 coadded with test compound; FIG. 35
# From the text: (§3) Apomorphine and idebenone approved as a therapeutic drug for Leber's hereditary optic neuropathy in the Europe were used as control drugs.
# (§4) In the drawing, A depicts the results obtained using compounds D8, D9, D10, D18, D20, D26, and D36, and B depicts the results obtained using compounds D37, D38, D39, D40, D41, D42, and D43. In the drawing, the abscissa depicts test compounds, and the ordinate depicts the cell viability (%) of each treated plot when the number of live cells in a control non-supplemented with RSL-3 is defined as 100%.
# [12] = test system: Leigh syndrome patient cells (KCMC10); experiment: Test III: suppression of BSO-induced ferroptosis, Leigh syndrome patient cells; format: cell-based, human; conditions: for cell death ascribable to ferroptosis induced by BSO: 100 μM BSO coadded with test compound, FIG. 32; for EC50: Homo sapiens, read-out: EC50 (50% effective concentration of the suppressive effect on cell death ascribable to ferroptosis induced by BSO); for EC50 / ferroptosis inhibitory effect (judged from EC50 value): Leigh syndrome patient cells (KCMC10), BSO; for ferroptosis inhibitory effect (judged from EC50 value): Table 3
# From the text: as §3
# as §4, with “BSO” for “RSL-3”
# [13] = test system: MELAS patient cells (ME169); experiment: Test III: suppression of BSO-induced ferroptosis, MELAS patient cells; format: cell-based, human; conditions: 80 μM BSO coadded with test compound; FIG. 33
# From the text: as §3
# as §4, with “BSO” for “RSL-3”
# [14] = test system: Leigh syndrome patient cells (KCMC10); experiment: Test III: suppression of RSL-3-induced ferroptosis, Leigh syndrome patient cells; format: cell-based, human; conditions: 100 nM RSL-3 coadded with test compound; FIG. 34
# From the text: as §3, §4
structure (smiles),measurement,setting,value
"COC1=C(OC)C(=O)C(CCCCCCCCCCO)=C(C)C1=O [Ide, idebenone]",cell death induced by BSO (cell viability),[1],the same or similar results
same,cell death induced by BSO (cell viability),[2],the same or similar results
same,cell death induced by BSO (cell viability),[3],suppressed
"CCOC(=O)c1ccc(NC2CCCCC2)c(N)c1 [Fer-1, ferrostatin-1]",cell death induced by RSL-3 (cell viability),[4],the same or similar results
same,cell death induced by BSO (cell viability),[5],suppressed
same,cell death induced by RSL-3 (cell viability),[6],the same or similar results; also recorded: same or similar tendency as above was more strongly confirmed
same,cell death induced by RSL-3 (cell viability),[7],the same or similar results
same,"cell death (cell viability) in normal cells, RSL-3",[8],suppressed
same,cell death induced by RSL-3 (cell viability),[9],suppressed
same,cell death induced by RSL-3 (in words),[10],suppressed
same,"LDH (LDH activity, cell death)",[10],2.50
same,MTT (cell proliferation and cell viability),[10],0.86
"CC(=O)N(O)CCCCCNC(=O)CCC(=O)N(O)CCCCCNC(=O)CCC(=O)N(O)CCCCCN [DFO, deferoxamine]",cell death induced by BSO (cell viability),[5],suppressed
same,cell death induced by RSL-3 (cell viability),[6],the same or similar results
COc1ccc2c(c1OC)C[C@@H]1c3c(cc4c(c3-2)OCO4)CCN1C [D8],Inhibitory effect on rotenone-induced cell death,SH-SY5Y cells,++
same,dopamine D2 receptor binding activity (in words),dopamine D2 receptor,no or little
same,"Dopamine D2 receptor binding activity, Activity intensity",dopamine D2 receptor,−
same,cell death ascribable to ferroptosis induced by RSL-3,[11],suppressed
same,cell death ascribable to ferroptosis induced by BSO,[12],markedly suppressed
same,EC50,[12],180 nM
same,ferroptosis inhibitory effect (judged from EC50 value),[12],particularly high
same,cell death ascribable to ferroptosis induced by BSO,[13],markedly suppressed
same,viability at 1 µM,[10],56%
same,"LDH (LDH activity, cell death)",[10],2.46
same,cell death ascribable to ferroptosis induced by RSL-3,[14],suppressed
"COC(=O)c1ccc([C@@H]2c3[nH]c4ccccc4c3C[C@@H](C(=O)OC)N2C(=O)CCl)cc1 [RSL-3, reference compound]","cell death (cell viability) in normal cells, RSL-3",[8],induced
same,cell death induced by RSL-3 (cell viability),[9],induced
same,cell death induced by RSL-3 (in words),[10],induced
same,"LDH (LDH activity, cell death)",[10],10.67
same,MTT (cell proliferation and cell viability),[10],0.45
"CN1CCc2cccc3c2[C@H]1Cc1ccc(O)c(O)c1-3 [Apomorphine, apomorphine]",cell death induced by BSO (cell viability),[1],the same or similar results
same,cell death induced by RSL-3 (cell viability),[4],the same or similar results
same,Inhibitory effect on rotenone-induced cell death,SH-SY5Y cells,±
same,cell death induced by BSO (cell viability),[5],suppressed
same,cell death induced by RSL-3 (cell viability),[6]; listed as Apo,the same or similar results; also recorded: same or similar tendency as above was more strongly confirmed
same,"Dopamine D2 receptor binding activity, Activity intensity",dopamine D2 receptor,++
same,cell death induced by BSO (cell viability),[2],the same or similar results
same,cell death induced by RSL-3 (cell viability),[7],the same or similar results
same,"cell death (cell viability) in normal cells, RSL-3",[8],suppressed
same,cell death induced by BSO (cell viability),[3],suppressed
same,cell death induced by RSL-3 (cell viability),[9],suppressed
same,viability at 1 µM,[10],67%
same,cell death induced by RSL-3 (in words),[10],suppressed
same,"LDH (LDH activity, cell death)",[10],1.82
CC(C)S(=O)(=O)c1ccc2nccc(Nc3ccc4scnc4c3)c2c1 [GSK872],cell death induced by BSO (cell viability),[5],not suppressed
same,cell death induced by RSL-3 (cell viability),[6],same or similar tendency as above was more strongly confirmed
same,"cell death (cell viability) in normal cells, RSL-3",[8],similarly induced
same,viability at 1 µM,[10],38%
same,"LDH (LDH activity, cell death)",[10],10.84
COc1cc2c3c(c1O)-c1c(ccc(OC)c1OC)CC3N(C)CC2 (centres unmarked) [D26],Inhibitory effect on rotenone-induced cell death,SH-SY5Y cells,±
same,dopamine D2 receptor binding activity (in words),dopamine D2 receptor,no or little
same,"Dopamine D2 receptor binding activity, Activity intensity",dopamine D2 receptor,−
same,cell death ascribable to ferroptosis induced by RSL-3,[11],suppressed
same,cell death ascribable to ferroptosis induced by BSO,[12],markedly suppressed
same,EC50,[12],289 nM
same,cell death ascribable to ferroptosis induced by BSO,[13],markedly suppressed
same,viability at 1 µM,[10],58%
same,"LDH (LDH activity, cell death)",[10],4.85
same,cell death ascribable to ferroptosis induced by RSL-3,[14],suppressed
"CCCCS(=N)(=O)CCC(N)C(=O)O [BSO, L-buthionine-(S,R)-sulfoximine]",cell death induced by BSO (cell viability),[5],induced
same,cell death induced by BSO (cell viability),[3],induced
"Clc1cccc(CN=C2Nc3ccccc3NC23CCNCC3)c1 [Lip-1, liproxstatin]",cell death induced by BSO (cell viability),[5],suppressed
same,cell death induced by RSL-3 (cell viability),[6],the same or similar results
CCCCOc1ccc2c(c1O)-c1cccc3c1[C@@H](C2)N(C)CC3.Cl [D36],Inhibitory effect on rotenone-induced cell death,SH-SY5Y cells,++
same,dopamine D2 receptor binding activity (in words),dopamine D2 receptor,no or little
same,"Dopamine D2 receptor binding activity, Activity intensity",dopamine D2 receptor,−
same,cell death ascribable to ferroptosis induced by RSL-3,[11],suppressed
same,cell death ascribable to ferroptosis induced by BSO,[12],markedly suppressed
same,EC50,[12],123 nM
same,ferroptosis inhibitory effect (judged from EC50 value),[12],particularly high
same,cell death ascribable to ferroptosis induced by BSO,[13],markedly suppressed
same,viability at 1 µM,[10],81%
same,"LDH (LDH activity, cell death)",[10],0.91
same,cell death ascribable to ferroptosis induced by RSL-3,[14],suppressed
